Values after ≈ are worked out from the molar mass of the structure shown.
Tests used:
[1] = tested on: Human immunodeficiency virus 1; assay: Inhibition of HIV-1 replication in H9 (human lymphoma) cells; No suppression.; format: functional, organism-based
H9 = assay: Inhibition of uninfected H9 lymphocytic cell growth; format: functional, cell-based; conditions: Homo sapiens
[2] = tested on: Human immunodeficiency virus 1; assay: Inhibition of HIV-1 replication in H9 (human lymphoma) cells.; format: functional, organism-based; conditions: Human immunodeficiency virus 1, H9
[3] = Therapeutic index - IC50/EC50.; conditions: read-out: Therapeutic index

Row | EC50 [1] | EC50 [2] | Structure (SMILES) | IC50 (H9) | selectivity ratio [3]
1 | No effect |  | COc1cc(C(=O)O[C@@H]2Cc3c(O)cc(O)cc3O[C@@H]2c2ccc(O)c(O)c2)cc(O)c1O | 50 µg/mL (≈ 110 µM) | 
2 |  | 15 µg/mL (≈ 16.4 µM) | O=C(O[C@@H]1[C@@H](c2c(O)cc3c(c2O)C[C@@H](OC(=O)c2cc(O)c(O)c(O)c2)[C@@H](c2cc(O)c(O)c(O)c2)O3)c2c(O)cc(O)cc2O[C@@H]1c1cc(O)c(O)c(O)c1)c1cc(O)c(O)c(O)c1 | 30 µg/mL (≈ 32.8 µM) | 2
3 | No effect |  | COc1c(O)cc(C(=O)O[C@@H]2Cc3c(O)cc(O)cc3O[C@@H]2c2ccc(O)c(O)c2)cc1O | 50 µg/mL (≈ 110 µM) | 
4 |  | 6.5 µg/mL (≈ 10.6 µM) | O=C(Oc1c(O)cc([C@H]2Oc3cc(O)cc(O)c3C[C@H]2OC(=O)c2cc(O)c(O)c(O)c2)cc1O)c1cc(O)c(O)c(O)c1 | 40 µg/mL (≈ 65.5 µM) | 6.2
5 | No effect |  | O=C(O[C@@H]1Cc2c(O)cc(O)cc2O[C@@H]1c1cc(O)c(O)cc1-c1c([C@H]2Oc3cc(O)cc(O)c3C[C@H]2OC(=O)c2cc(O)c(O)c(O)c2)cc(O)c(O)c1O)c1cc(O)c(O)c(O)c1 | 50 µg/mL (≈ 55.6 µM) | 
6 | Not Active |  | O=C(O[C@@H]1Cc2c(O)cc(O)cc2O[C@@H]1c1ccc(O)cc1)c1cc(O)c(O)c(O)c1 | 50 µg/mL (≈ 117 µM) | 
7 |  | 25 µg/mL (≈ 34.1 µM) | O=C(O[C@@H]1Cc2c(O)cc(O)cc2O[C@@H]1c1cc(O)c(O)c2c1C1C([C@H]3Oc4cc(O)cc(O)c4C[C@H]3O)=CC(=O)C1(O)O2)c1cc(O)c(O)c(O)c1 (stereo partly drawn) | 48 µg/mL (≈ 65.5 µM) | 1.9
8 |  | 15 µg/mL (≈ 24.6 µM) | Oc1cc(O)c2c(c1)O[C@H](c1cc(O)c(O)c(O)c1)[C@H](O)[C@H]2c1c(O)cc(O)c2c1O[C@H](c1cc(O)c(O)c(O)c1)[C@H](O)C2 | 18 µg/mL (≈ 29.5 µM) | 1.2
9 |  | 15 µg/mL (≈ 19.7 µM) | O=C(O[C@@H]1Cc2c(O)cc(O)c([C@H]3c4c(O)cc(O)cc4O[C@H](c4cc(O)c(O)c(O)c4)[C@@H]3O)c2O[C@@H]1c1cc(O)c(O)c(O)c1)c1cc(O)c(O)c(O)c1 | 28 µg/mL (≈ 36.7 µM) | 1.9
10 |  | 6 µg/mL (≈ 9.83 µM) | Oc1cc(O)c2c(c1)O[C@H](c1cc(O)c(O)c(O)c1-c1c([C@H]3Oc4cc(O)cc(O)c4C[C@H]3O)cc(O)c(O)c1O)[C@H](O)C2 | 9.5 µg/mL (≈ 15.6 µM) | 1.6
11 |  | 8 µg/mL (≈ 17.7 µM) | O=C(/C=C/c1ccc(O)cc1)O[C@@H]1Cc2c(O)cc(O)cc2O[C@@H]1c1cc(O)c(O)c(O)c1 | 35 µg/mL (≈ 77.4 µM) | 4.4
12 | No effect |  | O=C(O[C@H](Cc1c(O)cc(O)cc1O)[C@H](c1cc(O)c(O)c(O)c1)c1c(O)cc(O)c2c1O[C@H](c1cc(O)c(O)c(O)c1)[C@H](OC(=O)c1cc(O)c(O)c(O)c1)C2)c1cc(O)c(O)c(O)c1 | 9 µg/mL (≈ 9.82 µM) | 
13 | No effect |  | O=C(O[C@@H]1Cc2c(O)cc(O)c([C@@H]3c4c(O)cc(O)cc4O[C@H](c4cc(O)c(O)c(O)c4)[C@H]3O)c2O[C@@H]1c1cc(O)c(O)c(O)c1)c1cc(O)c(O)c(O)c1 | 9 µg/mL (≈ 11.8 µM) | 
14 |  | 12 µg/mL (≈ 19.7 µM) | Oc1cc(O)c2c(c1)O[C@H](c1cc(O)c(O)c(O)c1)[C@@H](O)[C@@H]2c1c(O)cc(O)c2c1O[C@H](c1cc(O)c(O)c(O)c1)[C@H](O)C2 | 18 µg/mL (≈ 29.5 µM) | 1.5
15 |  | 5.5 µg/mL (≈ 9.96 µM) | O=C(O[C@@H]1Cc2c(O)cc(O)cc2O[C@@H]1c1cc(O)c(=O)c2c(O)c(O)c(O)cc2c1)c1cc(O)c(O)c(O)c1 | 25 µg/mL (≈ 45.3 µM) | 4.5
16 | No effect |  | O=C(O[C@H](Cc1c(O)cc(O)cc1O)[C@@H](c1cc(O)c(O)c(O)c1)c1c(O)cc(O)c2c1O[C@H](c1cc(O)c(O)c(O)c1)[C@H](OC(=O)c1cc(O)c(O)c(O)c1)C2)c1cc(O)c(O)c(O)c1 | 8 µg/mL (≈ 8.73 µM) | 
17 | No effect |  | O=C(O[C@H]1Cc2c(O)cc3c(c2O[C@H]1c1cc(O)c(O)c(O)c1)[C@H]1c2c(O)cc(O)cc2O[C@@](c2cc(O)c(O)c(O)c2)(O3)[C@@H]1O)c1cc(O)c(O)c(O)c1 | 40 µg/mL (≈ 52.6 µM) | 

Row | EC50 [1] | EC50 [2] | Structure (SMILES) | IC50 (H9) | selectivity ratio [3]
18 | No effect |  | O=C(O[C@@H]1Cc2c(O)cc(O)c(Cc3c(O)cc(O)c4c3O[C@H](c3cc(O)c(O)c(O)c3)[C@H](OC(=O)c3cc(O)c(O)c(O)c3)C4)c2O[C@@H]1c1cc(O)c(O)c(O)c1)c1cc(O)c(O)c(O)c1 | 45 µg/mL (≈ 48.5 µM) | 
19 |  | 6.5 µg/mL (≈ 10.6 µM) | O=C(Oc1cc([C@H]2Oc3cc(O)cc(O)c3C[C@H]2OC(=O)c2cc(O)c(O)c(O)c2)cc(O)c1O)c1cc(O)c(O)c(O)c1 | 40 µg/mL (≈ 65.5 µM) | 6.2
20 |  | 25 µg/mL (≈ 26.9 µM) | O=C(O[C@@H]1Cc2c(cc(O)c(Cc3c(O)cc(O)c4c3O[C@H](c3cc(O)c(O)c(O)c3)[C@H](OC(=O)c3cc(O)c(O)c(O)c3)C4)c2O)O[C@@H]1c1cc(O)c(O)c(O)c1)c1cc(O)c(O)c(O)c1 | 40 µg/mL (≈ 43.1 µM) | 1.6
21 | No effect |  | O=C(O[C@@H]1[C@@H](c2c(O)cc(O)c3c2O[C@H](c2cc(O)c(O)c(O)c2)[C@H](OC(=O)c2cc(O)c(O)c(O)c2)C3)c2c(O)cc(O)cc2O[C@@H]1c1cc(O)c(O)c(O)c1)c1cc(O)c(O)c(O)c1 | 40 µg/mL (≈ 43.7 µM) | 
22 | No effect |  | O=C(O[C@@H]1Cc2c(O)cc(O)cc2O[C@@H]1c1cc(O)c(O)c2c(=O)c(O)cc([C@H]3Oc4cc(O)cc(O)c4C[C@H]3O)cc12)c1cc(O)c(O)c(O)c1 | 48 µg/mL (≈ 67 µM) | 
23 |  | 14 µg/mL (≈ 15.3 µM) | O=C(O[C@H](Cc1c(O)cc(O)cc1O)[C@@H](c1cc(O)c(O)c(O)c1)c1c(O)cc2c(c1O)C[C@@H](OC(=O)c1cc(O)c(O)c(O)c1)[C@@H](c1cc(O)c(O)c(O)c1)O2)c1cc(O)c(O)c(O)c1 | 35 µg/mL (≈ 38.2 µM) | 2.5
24 |  | 9 µg/mL (≈ 9.69 µM) | O=C(O[C@@H]1Cc2c(cc(O)c(Cc3c(O)cc4c(c3O)C[C@@H](OC(=O)c3cc(O)c(O)c(O)c3)[C@@H](c3cc(O)c(O)c(O)c3)O4)c2O)O[C@@H]1c1cc(O)c(O)c(O)c1)c1cc(O)c(O)c(O)c1 | 35 µg/mL (≈ 37.7 µM) | 3.9
25 |  | 8 µg/mL (≈ 8.75 µM) | O=C(O[C@@H]1Cc2c(O)cc(O)cc2OC1c1cc(O)c(O)c(O)c1-c1c(C2Oc3cc(O)cc(O)c3C[C@H]2OC(=O)c2cc(O)c(O)c(O)c2)cc(O)c(O)c1O)c1cc(O)c(O)c(O)c1 (single isomer, unassigned) | 40 µg/mL (≈ 43.7 µM) | 5
26 |  | 10 µg/mL (≈ 16.4 µM) | Oc1cc(O)c2c(c1)OC(c1cc(O)c(O)c(O)c1-c1c(C3Oc4cc(O)cc(O)c4C[C@H]3O)cc(O)c(O)c1O)[C@H](O)C2 (single isomer, unassigned) | 20 µg/mL (≈ 32.8 µM) | 2
27 | No effect |  | O=C(O[C@@H]1Cc2c(O)cc(O)cc2O[C@@H]1c1cc(O)c(O)c(O)c1-c1c([C@H]2Oc3cc(O)cc(O)c3C[C@H]2O)cc(O)c(O)c1O)c1cc(O)c(O)c(O)c1 [2',2'-BISEPIGALLOCATECHIN MONOGALLATE] | 9.5 µg/mL (≈ 12.5 µM) | 
28 |  | 9.8 µg/mL (≈ 32.2 µM) | O=C1c2c(O)cc(O)cc2O[C@H](c2ccc(O)c(O)c2)[C@H]1O [(+)-TAXIFOLIN] | 9.8 µg/mL (≈ 32.2 µM) | 1
29 |  | 70 µg/mL (≈ 255 µM) | Oc1ccc([C@H]2Oc3cc(O)cc(O)c3C[C@H]2O)cc1 [EPIAFZELECHIN (2R,3R)(-)] | 100 µg/mL (≈ 365 µM) | 1.4
30 | No effect |  | O=C(O[C@@H]1Cc2c(O)cc(O)cc2O[C@@H]1c1ccc(O)c(O)c1)c1cc(O)c(O)c(O)c1 [EPICATECHIN GALLATE] | > 10 µg/mL | 
31 |  | 5.5 µg/mL (≈ 9.01 µM) | O=C(Oc1cc(O)cc2c1C[C@@H](OC(=O)c1cc(O)c(O)c(O)c1)[C@@H](c1cc(O)c(O)c(O)c1)O2)c1cc(O)c(O)c(O)c1 [EPIGALLOCATECHIN 3,5-DIGALLATE] | 20 µg/mL (≈ 32.8 µM) | 3.6
32 | No effect |  | O=C(O[C@@H]1Cc2c(O)cc(O)cc2O[C@@H]1c1cc(O)c(=O)c2c(O)c(O)cc([C@H]3Oc4cc(O)cc(O)c4C[C@H]3OC(=O)c3cc(O)c(O)c(O)c3)c2c1)c1cc(O)c(O)c(O)c1 [THEAFLAVIN DIGALLATE] | 48 µg/mL (≈ 55.3 µM) | 
33 | No effect |  | O=c1c(O)cc([C@H]2Oc3cc(O)cc(O)c3C[C@H]2O)cc2c([C@H]3Oc4cc(O)cc(O)c4C[C@H]3O)cc(O)c(O)c12 [THEAFLAVIN] | 48 µg/mL (≈ 85 µM) | 
34 |  | 19 µg/mL (≈ 20.8 µM) | O=C(O[C@@H]1Cc2c(O)cc(O)cc2O[C@@H]1c1cc(O)c(O)c(O)c1-c1c([C@H]2Oc3cc(O)cc(O)c3C[C@H]2OC(=O)c2cc(O)c(O)c(O)c2)cc(O)c(O)c1O)c1cc(O)c(O)c(O)c1 [THEASINENSIN A] | 18 µg/mL (≈ 19.7 µM) | 0.95

Row | Structure (SMILES) | EC50 [1] | EC50 [2] | IC50 (H9) | selectivity ratio [3]
35 | O=C(O[C@@H]1Cc2c(O)cc3c(c2O[C@@H]1c1cc(O)c(O)c(O)c1)C1(O)C(=O)O[C@H]([C@@H](O)CO)C1(O)O3)c1cc(O)c(O)c(O)c1 (stereo partly drawn) |  | 10 µg/mL (≈ 15.8 µM) | 40 µg/mL (≈ 63.2 µM) | 4
36 | O=C1O[C@H]([C@@H](O)CO)C2(O)Oc3cc(O)c4c(c3C12O)O[C@H](c1cc(O)c(O)c(O)c1)[C@H](O)C4 (stereo partly drawn) |  | 4 µg/mL (≈ 8.33 µM) | 38 µg/mL (≈ 79.1 µM) | 9.5
37 | Oc1cc(O)c2c(c1)O[C@H](c1cc(O)c(O)c(O)c1)[C@H](O)C2 [EPIGALLOCATECHIN] | No effect |  | 1.8 µg/mL (≈ 5.88 µM) | 
38 | O=C(O[C@@H]1Cc2c(O)cc(O)cc2O[C@@H]1c1cc(O)c(O)c(O)c1)c1cc(O)c(O)c(O)c1 [EPIGALOCATECHIN GALLATE] |  | 7 µg/mL (≈ 15.3 µM) | 8 µg/mL (≈ 17.5 µM) | 1.1
